From PubChem BioAssay (NCI)
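1) Cells in 96-well plates. 2) Compound, 48 h, 5 concentrations. 3) Linear interpolation between surrounding doses. 4) Unreached endpoint = highest concentration. Definition used: TGI = concentration required for complete inhibition of growth.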

Key:
Assay in all cases: inhibition of tumour cell growth, NCI panel, 48 h
[1] = tested on: 786-0 renal
[2] = tested on: BT-549 breast
[3] = tested on: MDA-MB-231 breast
[4] = tested on: NCI/ADR-RES ovarian
[5] = tested on: SF-268 CNS
[6] = tested on: SF-295 CNS
[7] = tested on: SR leukemia
[8] = tested on: U251 CNS
[9] = tested on: UACC-62 melanoma
[10] = tested on: UO-31 renal
[11] = tested on: RPMI-8226 leukemia
[12] = tested on: COLO 205 colon

CC1(CCOCc2ccccc2)NC(=O)NC1=O (stereo not given)
TGI [1]: > 100 µM
TGI [2]: > 100 µM
TGI [3]: > 100 µM
TGI [4]: > 100 µM
TGI [5]: > 100 µM
TGI [6]: > 100 µM
TGI [7]: > 100 µM
TGI [8]: > 100 µM
TGI [9]: > 100 µM
TGI [10]: > 100 µM

CCCCCCOC(=O)/C=C/[C@]1(CO)C/C(=C/CC(C(C)C)C(C)C)C(=O)O1
TGI [1]: 17.6 µM
TGI [2]: 22.9 µM
TGI [4]: 28.1 µM
TGI [11]: 56.1 µM
TGI [5]: 23.5 µM
TGI [6]: 29.8 µM
TGI [9]: 27.3 µM
TGI [10]: 17.8 µM

COc1ccc(S(=O)(=O)c2nnc(S(=O)(=O)Cc3ccccc3)s2)cc1
TGI [1]: 62.1 µM
TGI [2]: 49.8 µM
TGI [12]: 28.5 µM
TGI [3]: 62.3 µM
TGI [4]: > 100 µM
TGI [11]: > 100 µM
TGI [5]: > 100 µM
TGI [6]: 90.1 µM
TGI [8]: 52.3 µM
TGI [10]: 43.4 µM

CC12CC(c3ccccc3O1)C(C(=O)Nc1ccc(Cl)cc1Cl)C(=O)N2 (stereo not given)
TGI [1]: 43.8 µM
TGI [2]: > 100 µM
TGI [12]: > 100 µM
TGI [4]: > 100 µM
TGI [11]: > 100 µM
TGI [5]: > 100 µM
TGI [6]: > 100 µM
TGI [8]: 48.2 µM
TGI [9]: > 100 µM
TGI [10]: 37.7 µM

COc1ccc(-[n+]2nc(S(=O)(=O)O)c(/C=C/c3ccc(N(C)C)cc3)cc2C#N)cc1
TGI [1]: > 100 µM
TGI [2]: > 100 µM
TGI [12]: > 100 µM
TGI [3]: > 100 µM
TGI [4]: > 100 µM
TGI [11]: > 100 µM
TGI [5]: > 100 µM
TGI [6]: > 100 µM
TGI [8]: > 100 µM
TGI [9]: > 100 µM
TGI [10]: > 100 µM

CSc1nc(Nc2cccc(C(F)(F)F)c2)c2c(N)nn(C)c2n1
TGI [1]: > 100 µM
TGI [2]: > 100 µM
TGI [12]: > 100 µM
TGI [3]: > 100 µM
TGI [4]: > 100 µM
TGI [11]: > 100 µM
TGI [5]: > 100 µM
TGI [6]: > 100 µM
TGI [8]: > 100 µM
TGI [9]: > 100 µM
TGI [10]: > 100 µM

COC(=O)C1=C(O)C(C(=O)OC)[C@]2(O)[C@H](C(=O)OC)[C@H]1C[C@@H](c1ccc(C(F)(F)F)cc1)[C@H]2C(=O)OC (stereo not given in full)
TGI [1]: 23.4 µM
TGI [2]: > 100 µM
TGI [12]: 11.5 µM
TGI [3]: > 100 µM
TGI [11]: > 100 µM
TGI [5]: > 100 µM
TGI [6]: 48.3 µM
TGI [7]: > 100 µM
TGI [8]: 14.9 µM
TGI [9]: 29 µM
TGI [10]: 8.42 µM

CN=C(N=Nc1c(O)[nH]c2ccccc12)SCC(=O)c1ccc(Br)cc1
TGI [1]: 16 µM
TGI [2]: > 100 µM
TGI [12]: > 100 µM
TGI [3]: 19.8 µM
TGI [4]: 27 µM
TGI [11]: > 100 µM
TGI [5]: > 48.7 µM
TGI [6]: 49.6 µM
TGI [8]: 16.6 µM
TGI [9]: > 100 µM
TGI [10]: 3.79 µM

Cn1c(=O)c2c(nc(Cc3ccccc3)n2CC(=O)O)n(C)c1=O
TGI [1]: > 100 µM
TGI [2]: > 100 µM
TGI [3]: > 100 µM
TGI [4]: > 100 µM
TGI [5]: > 100 µM
TGI [6]: > 100 µM
TGI [8]: > 100 µM
TGI [9]: > 100 µM
TGI [10]: > 100 µM

O=[N+]([O-])/C(C(Cl)=C(Cl)Cl)=C(/Cl)Sc1ccccc1
TGI [1]: 2.62 µM
TGI [12]: 2.75 µM
TGI [3]: 3.4 µM
TGI [4]: 2.35 µM
TGI [11]: 1.15 µM
TGI [5]: 5.71 µM
TGI [6]: 37.6 µM
TGI [7]: 2.38 µM
TGI [8]: 5.04 µM
TGI [9]: 3.36 µM
TGI [10]: 3.02 µM

Cn1c(=O)n(C2(C)C[Se]C2)c2ccccc21
TGI [1]: > 100 µM
TGI [12]: > 100 µM
TGI [11]: > 100 µM
TGI [5]: > 100 µM
TGI [6]: > 100 µM
TGI [7]: > 100 µM
TGI [8]: > 100 µM
TGI [9]: > 100 µM
TGI [10]: > 100 µM

O=C(O)CCC(NC(=O)c1ccc(Nc2nc3cc(C(F)(F)F)ccc3nc2-c2ccccc2)cc1)C(=O)O (stereo not given)
TGI [12]: > 100 µM
TGI [4]: > 100 µM
TGI [11]: > 100 µM
TGI [5]: > 100 µM
TGI [6]: > 100 µM
TGI [8]: > 100 µM
TGI [9]: > 100 µM
TGI [10]: > 100 µM

CC(CO)(CO)N1C(=O)C2C3C=CC(C3)C2C1=O (stereo not given)
TGI [1]: > 100 µM
TGI [12]: > 100 µM
TGI [3]: > 100 µM
TGI [4]: > 100 µM
TGI [11]: > 100 µM
TGI [5]: > 100 µM
TGI [6]: > 100 µM
TGI [7]: > 100 µM
TGI [8]: > 100 µM
TGI [9]: > 100 µM
TGI [10]: > 100 µM

COC(=O)c1ccccc1/C=C1\Cc2ccc(C)c(C)c2C1=O
TGI [1]: > 100 µM
TGI [2]: > 100 µM
TGI [12]: > 100 µM
TGI [4]: > 100 µM
TGI [11]: > 100 µM
TGI [5]: > 100 µM
TGI [6]: > 100 µM
TGI [7]: > 100 µM
TGI [8]: > 100 µM
TGI [9]: > 100 µM
TGI [10]: > 100 µM

CSc1ncnc2c1ncn2CCC(=O)OC(C)(C)C
TGI [1]: > 100 µM
TGI [12]: > 100 µM
TGI [3]: > 100 µM
TGI [4]: > 100 µM
TGI [11]: > 100 µM
TGI [5]: > 100 µM
TGI [6]: > 100 µM
TGI [7]: > 100 µM
TGI [10]: > 100 µM

COc1ccc(/C=C2\N=C(SC)N(CN3CCOCC3)C2=O)cc1
TGI [1]: > 100 µM
TGI [12]: > 100 µM
TGI [3]: > 100 µM
TGI [4]: > 100 µM
TGI [11]: > 100 µM
TGI [5]: > 100 µM
TGI [6]: > 100 µM
TGI [7]: > 100 µM
TGI [8]: > 100 µM
TGI [9]: > 100 µM
TGI [10]: > 100 µM

CN(CC(=O)O)c1ncc2c(n1)CCCC2
TGI [1]: > 100 µM
TGI [12]: > 100 µM
TGI [3]: > 100 µM
TGI [4]: > 100 µM
TGI [11]: > 100 µM
TGI [5]: > 100 µM
TGI [6]: > 100 µM
TGI [7]: > 100 µM
TGI [8]: > 100 µM
TGI [9]: > 100 µM
TGI [10]: > 100 µM

O=c1[nH]nc(Cc2ccccc2)n1/N=C/c1ccccc1O
TGI [1]: > 100 µM
TGI [2]: > 100 µM
TGI [12]: > 100 µM
TGI [3]: > 100 µM
TGI [4]: > 100 µM
TGI [11]: > 100 µM
TGI [5]: > 100 µM
TGI [6]: > 100 µM
TGI [8]: > 100 µM
TGI [9]: > 100 µM
TGI [10]: > 100 µM

CC1CCC(=O)C(C(=O)CC2CC(=O)N(C)C(=O)C2)C1 (stereo not given)
TGI [1]: > 100 µM
TGI [2]: > 100 µM
TGI [12]: > 100 µM
TGI [3]: > 100 µM
TGI [4]: > 100 µM
TGI [11]: > 100 µM
TGI [5]: > 100 µM
TGI [6]: > 100 µM
TGI [8]: > 100 µM
TGI [9]: > 100 µM
TGI [10]: > 100 µM

NCc1ccccc1-c1c2nc(c(-c3ccccc3CN)c3ccc([nH]3)c(-c3ccccc3CN)c3nc(c(-c4ccccc4CN)c4ccc1[nH]4)C=C3)C=C2
TGI [12]: 97.7 µM
TGI [11]: 32.3 µM
TGI [5]: > 100 µM
TGI [8]: 51.6 µM
TGI [9]: 54.1 µM
TGI [10]: 42.6 µM
